Assays:
AmGr10 [1] = target: T1, AmGr10 (Apis mellifera, UniProt A0A7M6W8K8); experiment: Two-electrode voltage-clamp recording of Xenopus oocytes expressing AmGr10; type: cell-based; conditions: for Response of oocytes injected with AmGr10 cRNA (in words): holding potential -70 mV; for Threshold concentration on Xenopus oocytes expressed AmGr10: in vitro
Method: Full-length coding sequences of the AmGr10 cDNA were first cloned into pGEM-T easy vector (Promega, Madison, USA) and then subcloned into the pSDTF vector. In vitro transcription of cRNA was performed by using the mMESSAGE mMACHINE SP6 Kit (Ambion, Austin, TX, USA) according to the manufacturer’s protocol. Plasmids were linearized with EcoR1, and capped cRNA was transcribed using SP6 RNA polymerase. The cRNA was purified, resuspended in nuclease-free water at a concentration of 1 μg/μl, and stored at −80 °C in aliquots. Mature oocytes were freed from the follicle cells by treatment with collagenase A for 1 h at room temperature and incubated for 24 hours in modified Barth’s solution[16]. […] The oocytes were then incubated at 17 °C for 3~5 days in Barth’s solution. The two-electrode voltage-clamp technique was employed to observe tastant-induced currents at a holding potential of −70 mV.

AmGr10 [2] = target: T1, AmGr10; experiment: Calcium imaging of HEK 293 cells expressing AmGr10; type: cell-based; conditions: for Real time calcium imaging response: 50 μm amino acid alone, Videos S1, S2; for Real time calcium imaging response with IMP: 50 μm amino acid with 2 μm of IMP, Videos S3, S4
Method: (§1) The expression vector was synthesized by inserting the cDNA of AmGr10 (Apis mellifera Gustatory receptor 10) into the multiple cloning site of the pcDNA3.1 vector using the restriction enzymes EcoRI and NotI (Koscamco, Anyang, Korea). Template pDNA for pcDNA3.1-AmGr10 and primers were then mixed with kit solutions. The total PCR volume and conditions were followed as described previously. 2.5 µg of the vector with AmGr10 was transfected into the HEK 293 cells using Lipofectamine 2000 (Invitrogen, CA, USA). The transfection method was according to the manufacturer’s manual. In brief, the Opti-MEM (Invitrogen, CA, USA) was mixed with Lipofectamine at the rate of 6 μL in 125 μL Opti-MEM. It was incubated for 5 min at room temperature. The plasmid DNA (2.5 μg) also was blended with 125 μL Opti-MEM media. These were combined and incubated for 20 min at room temperature. The solution was applied on the HEK cells. After 24 h, the transfected cells were selected using 200 µg/ml zeocin.
Transfected cell lines were subsequently cultured on dishes suitable for confocal microscopy (SPL, Pocheon, Korea). Before each experiment, the culture medium was removed and washed once in Hansk’s balanced salt solution (assay buffer). Transfected cells were loaded with calcium dye Fluo-4 AM (Molecular probes, USA), 2 μM in assay buffer to the dish, after which the cells were incubated in the dark for 90 min at room temperature. After incubation, 1X HBSS buffer was added to the confocal dish, which was then directly placed in the LSM700 inverted confocal microscope for observation (Zeiss, Oberkochen, Germany). Images were captured with a maximum of 100 frames per two-second interval. Test chemicals were dissolved in HBSS at various concentrations. Calcium influx into the transfected cells upon ligand binding was monitored and analyzed with ZEN software (Zeiss, Oberkochen, Germany). For data analysis, response refers to the number of cells responding in a field of about 300 transfected cells. Cells were counted as responders if the F ratio increased above 0.27 after addition of tastants.

[3] = tested on: sensilla chaetica on the galea; experiment: Tip recording from galeal sensilla chaetica of honey bee; type: in vivo, Apis mellifera; conditions: for Responses during 1 sec of stimulation: sensilla chaetica on the galea; for Threshold concentration necessary for tip recording: honey bee mouthparts in vivo; for Response of sensilla chaetica on the galea (in words): tip recording
Text: Tip recording® experiments were amplified and recorded from the left galea of the proboscis in honey bee mouthparts with IDAC4 with Autospikes software (Syntech, Hilversum, The Netherlands). Bees were immobilized by cooling on ice, restrained in a pipette tip, holding head and appendages in place for electrophysiological measurements. Recordings from gustatory sensilla in galea were made from so-called sensilla chaetica[81] at the tip of galea devoid of olfactory sensilla. These sensilla can be easily identified by their external morphology. A grounded reference electrode filled with 1 mM KCl was inserted into the compound eye. L-glutamate and L-aspartate were selected for tip recording testing and are common amino acids in plant pollen. For stimulation, 1 mM KCl with […] concentrations of 100 mM and 1 mM KCl alone were used. Stimuli were applied for approximately 5 s with an inter-stimulus interval of 3 min. […] These sensilla were excluded from the data analysis. The responses of galeal sensilla to all tested solutions were quantified by counting the number of spikes after stimulus onset.

AmGr10 [4] = target: T1, AmGr10; experiment: Intracellular calcium assay (Fluo-4) in HEK 293 cells expressing AmGr10; type: cell-based; conditions: for Response of HEK 293 cells expressing AmGr10 (in words): 100 mM of amino acid
Method: as §1
For calcium signaling assays, HEK 293 cells expressing AmGr10 were cultured for more than 3 days, and the Fluo-4 AM dye mix solution (Molecular probes) was loaded into the cell in 96-well microplate. […] To normalize the response, the changes in the fluorescence ratio were divided by the maximal fluorescence changes induced by each compound.

hT1R1/hT1R3 = conditions: cited from earlier work
human = tested on: human; set-up: method as in PMID 24214976; conditions: at high concentrations; cited from earlier work
AmGr1 = tested on: AmGr1; set-up: method as in earlier work; conditions: cited from earlier work
AmGr3 = tested on: AmGr3; set-up: method as in PMID 28403157, PMID 29194737; conditions: cited from earlier work
[5] = tested on: non-transfected HEK 293 cells; experiment: Calcium imaging of non-transfected HEK 293 cells (control); type: cell-based; conditions: Fig. S6
Method: Test chemicals were dissolved in HBSS at various concentrations.

T1 sequence (A0A7M6W8K8 entry or part of it): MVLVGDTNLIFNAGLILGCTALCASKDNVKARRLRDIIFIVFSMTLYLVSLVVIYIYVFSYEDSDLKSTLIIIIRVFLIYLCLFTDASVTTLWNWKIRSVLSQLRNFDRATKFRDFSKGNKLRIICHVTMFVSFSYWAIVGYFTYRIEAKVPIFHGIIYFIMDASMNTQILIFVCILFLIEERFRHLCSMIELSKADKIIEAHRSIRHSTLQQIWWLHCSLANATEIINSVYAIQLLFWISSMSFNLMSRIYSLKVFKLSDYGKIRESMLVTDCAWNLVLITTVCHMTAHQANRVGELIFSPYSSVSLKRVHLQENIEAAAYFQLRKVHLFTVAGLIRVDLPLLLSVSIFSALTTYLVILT

SMILES: N[C@@H](CC(=O)O)C(=O)O [L-aspartate, L-Aspartic acid]
- Response of oocytes injected with AmGr10 cRNA (in words) (AmGr10 [1]): responsive
- Threshold concentration on Xenopus oocytes expressed AmGr10 (AmGr10 [1]): ~ 10 mM
- Real time calcium imaging response (AmGr10 [2]): clearly showed calcium responses
- Real time calcium imaging response with IMP (AmGr10 [2]): clearly showed enhanced response
- Responses during 1 sec of stimulation ([3]; 100 mM): 22 spikes
- Responses during 1 sec of stimulation ([3]; 200 mM): 51 spikes
- Responses during 1 sec of stimulation ([3]; concentration of 50 mM): 6 spikes
- Threshold concentration necessary for tip recording [3]: ~ 50 mM
- Response of sensilla chaetica on the galea (in words) [3]: responded
- Response of HEK 293 cells expressing AmGr10 (in words) (AmGr10 [4]): highest responses

SMILES: NC(=O)CC[C@H](N)C(=O)O [L-glutamine, L-Glutamine]
- Response of oocytes injected with AmGr10 cRNA (in words) (AmGr10 [1]): responsive
- Response of HEK 293 cells expressing AmGr10 (in words) (AmGr10 [4]): significant responses
- Response of hT1R1/hT1R3 (hT1R1/hT1R3): slight but significant responses
- Umami taste in human sensory tests (human): weak umami taste

SMILES: N[C@@H](CO)C(=O)O [L-serine, L-Serine]
- Response of hT1R1/hT1R3 (hT1R1/hT1R3): slight but significant responses

SMILES: O=C(CO)[C@@H](O)[C@H](O)[C@H](O)CO [fructose]
- Response of AmGr1 (AmGr1): not
- Response of AmGr3 (AmGr3): responds only

SMILES: NC(CCP(=O)(O)O)C(=O)O [L-AP4]
- AmGr10 response in presence of purine nucleotides (AmGr10 [2]; amino acids 50 mM, IMP 2 mM): greatly enhanced

SMILES: OC[C@H]1O[C@H](O[C@H]2O[C@H](CO)[C@@H](O)[C@H](O)[C@H]2O)[C@H](O)[C@@H](O)[C@@H]1O [trehalose]
- Response of AmGr1 (AmGr1): responded

SMILES: C[C@H](N)C(=O)O [L-Ala]
- Response of hT1R1/hT1R3 (hT1R1/hT1R3): slight but significant responses

SMILES: Nc1nc2c(ncn2[C@@H]2O[C@H](COP(=O)(O)O)[C@@H](O)[C@H]2O)c(=O)[nH]1 [GMP, Guanosine 5′-monophosphate]
- Effect of GMP on responses to non-amino acid stimulus sucrose ([3]; 2 mM GMP): no significant effect
- Effect of GMP on nerve-firing rates to amino acids ([3]; 2 mM GMP, 50 mM amino acids): significantly enhanced

SMILES: OC[C@H]1OC(O)[C@H](O)[C@@H](O)[C@@H]1O (stereo partly drawn) [glucose]
- Response of AmGr1 (AmGr1): responded

SMILES: OC[C@H]1O[C@H](O[C@H]2[C@H](O)[C@@H](O)C(O)O[C@@H]2CO)[C@H](O)[C@@H](O)[C@@H]1O (mixture of isomers) [maltose]
- Response of AmGr1 (AmGr1): responded

SMILES: N[C@@H](Cc1c[nH]cn1)C(=O)O [L-histidine, L-Histidine]
- Response of hT1R1/hT1R3 (hT1R1/hT1R3): slight but significant responses

SMILES: N=C(N)NCCC[C@H](N)C(=O)O [L-arginine, L-Arginine]
- Response of oocytes injected with AmGr10 cRNA (in words) (AmGr10 [1]): responsive
- Response of HEK 293 cells expressing AmGr10 (in words) (AmGr10 [4]): significant responses
- Response of hT1R1/hT1R3 (hT1R1/hT1R3): slight but significant responses
- Umami taste in human sensory tests (human): weak umami taste

SMILES: OC[C@H]1O[C@@](CO)(O[C@H]2O[C@H](CO)[C@@H](O)[C@H](O)[C@H]2O)[C@@H](O)[C@@H]1O [sucrose, Sucrose]
- Response of AmGr1 (AmGr1): responded
- Response of sensilla chaetica on the galea (in words) [3]: sensitive

SMILES: Cn1c(=O)c2c(ncn2C)n(C)c1=O [caffeine]
- Response of oocytes injected with AmGr10 cRNA (in words) (AmGr10 [1]): not

SMILES: NCCCC[C@H](N)C(=O)O [L-lysine, L-Lysine]
- Response of oocytes injected with AmGr10 cRNA (in words) (AmGr10 [1]): responsive
- Response of HEK 293 cells expressing AmGr10 (in words) (AmGr10 [4]): significant responses

SMILES: N[C@@H](CCC(=O)O)C(=O)[O-].[Na+] [MSG, L-Glutamic acid monosodium salt]
- Response to MSG of AmGr10-transfected HEK 293 cells vs non-transfected (AmGr10 [4]; concentration steps, Fig. S5): significantly increased
- Sensitivity of HEK 293 cells expressing hT1R1/hT1R3 (hT1R1/hT1R3; unlike non-transfected HEK 293 cells): significantly sensitive

SMILES: NC(=O)C[C@H](N)C(=O)O [L-asparagine, L-Asparagine]
- Response of oocytes injected with AmGr10 cRNA (in words) (AmGr10 [1]): responsive
- Response of HEK 293 cells expressing AmGr10 (in words) (AmGr10 [4]): significant responses
- Response of hT1R1/hT1R3 (hT1R1/hT1R3): slight but significant responses
- Umami taste in human sensory tests (human): weak umami taste

SMILES: N[C@@H](CCC(=O)O)C(=O)O [L-glutamate, L-Glutamic acid]
- Response of oocytes injected with AmGr10 cRNA (in words) (AmGr10 [1]): responsive
- Threshold concentration on Xenopus oocytes expressed AmGr10 (AmGr10 [1]): ~ 10 mM
- Real time calcium imaging response (AmGr10 [2]): clearly showed calcium responses
- Real time calcium imaging response with IMP (AmGr10 [2]): clearly showed enhanced response
- Responses during 1 sec of stimulation ([3]; 100 mM): 27 spikes
- Responses during 1 sec of stimulation ([3]; 200 mM): 55 spikes
- Responses during 1 sec of stimulation ([3]; concentration of 50 mM): 15 spikes
- Threshold concentration necessary for tip recording [3]: ~ 50 mM
- Response of sensilla chaetica on the galea (in words) [3]: responded
- Response of HEK 293 cells expressing AmGr10 (in words) (AmGr10 [4]): highest responses

SMILES: CNc1ccc2oc(C[C@@H]3OC4(CC[C@@H]3C)O[C@H](C(C)C(=O)c3ccc[nH]3)[C@H](C)C[C@H]4C)nc2c1C(=O)O (stereo partly drawn) [calcium ionophore]
- Calcium influx in non-transfected HEK 293 cells [5]: activated

Reference: paper PMC6690930, “Characterization and its implication of a novel taste receptor detecting nutrients in the honey bee, Apis mellifera” (Scientific Reports, 2019)
